According to patent US10030020B2, “Spirocycle compounds and methods of making and using same” (Abide Therapeutics, Inc., priority 2016, dated 2018):

Key:
[1] = molecular target: T1, MAGL (Mus musculus (Mouse), UniProt O35678); experiment: In vitro competitive activity-based protein profiling (mouse brain membrane fraction or cell lysates), MAGL band; type: biochemical; conditions: mouse proteome; for inhibition at 1 µM: read-out: MAGL % Inh 1 μM (mouse); for IC50: competitive ABPP
Protocol: In Vitro Competitive Activity-Based Protein Profiling.
Proteomes (mouse brain membrane fraction or cell lysates) (50 μL, 1.0 mg/mL total protein concentration) were preincubated with varying concentrations of inhibitors at 37° C. After 30 min, FP—Rh (1.0 μL, 50 μM in DMSO) was added and the mixture was incubated for another 30 min at 37° C. Reactions were quenched with SDS loading buffer (50 μL-4×) and run on SDS-PAGE.

[2] = molecular target: T2, ABHD6 (Mus musculus (Mouse), UniProt Q8R2Y0); experiment: In vitro competitive activity-based protein profiling (mouse brain membrane fraction or cell lysates), ABHD6 band; type: biochemical; conditions: mouse proteome; for inhibition at 1 µM: read-out: ABHD6 % Inh 1 μM (mouse); for IC50: competitive ABPP
In short: (§1)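 Residual hydrolase activity was measured as gel band fluorescence after FP-Rh labelling (30 min, 37° C) of proteomes pretreated 30 min at 37° C with inhibitor.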

[3] = molecular target: T3, FAAH (Mus musculus (Mouse), UniProt O08914); experiment: In vitro competitive activity-based protein profiling (mouse brain membrane fraction or cell lysates), FAAH band; type: biochemical; conditions: mouse proteome; for inhibition at 1 µM: read-out: FAAH % Inh 1 μM (mouse); for IC50: competitive ABPP
In short: as §1

[4] = molecular target: T1, MAGL; experiment: Mouse brain proteomes from inhibitor treated mice (oral gavage, sacrificed 4 h after administration, ABPP analysis); type: in vivo, mouse (C57Bl/6J); conditions: 5 mg/kg oral gavage
In short: (§2)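 Percent inhibition in brain tissue measured by ABPP 4 h after a single oral gavage dose (5 mg/kg) to wild-type C57Bl/6J mice; vehicle was, for example, PEG400/Ethanol/PBS at 7/2/1.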

[5] = molecular target: T3, FAAH; experiment: Mouse brain proteomes from inhibitor treated mice (oral gavage, sacrificed 4 h after administration, ABPP analysis), FAAH; type: in vivo, mouse (C57Bl/6J); conditions: 5 mg/kg oral gavage
In short: as §2

[6] = molecular target: T2, ABHD6; experiment: Mouse brain proteomes from inhibitor treated mice (oral gavage, sacrificed 4 h after administration, ABPP analysis), ABHD6; type: in vivo, mouse (C57Bl/6J); conditions: 5 mg/kg oral gavage
In short: as §2

T1 sequence (O35678 whole entry): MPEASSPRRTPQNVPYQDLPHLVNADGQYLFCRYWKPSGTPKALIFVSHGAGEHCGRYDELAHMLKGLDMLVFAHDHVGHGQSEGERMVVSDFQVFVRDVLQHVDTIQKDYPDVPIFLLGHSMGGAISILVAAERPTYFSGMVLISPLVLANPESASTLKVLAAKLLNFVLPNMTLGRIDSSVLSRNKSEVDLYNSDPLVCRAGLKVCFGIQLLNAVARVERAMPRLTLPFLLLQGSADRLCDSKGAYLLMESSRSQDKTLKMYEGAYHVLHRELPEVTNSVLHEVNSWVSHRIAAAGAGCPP
T3 sequence (O08914 whole entry): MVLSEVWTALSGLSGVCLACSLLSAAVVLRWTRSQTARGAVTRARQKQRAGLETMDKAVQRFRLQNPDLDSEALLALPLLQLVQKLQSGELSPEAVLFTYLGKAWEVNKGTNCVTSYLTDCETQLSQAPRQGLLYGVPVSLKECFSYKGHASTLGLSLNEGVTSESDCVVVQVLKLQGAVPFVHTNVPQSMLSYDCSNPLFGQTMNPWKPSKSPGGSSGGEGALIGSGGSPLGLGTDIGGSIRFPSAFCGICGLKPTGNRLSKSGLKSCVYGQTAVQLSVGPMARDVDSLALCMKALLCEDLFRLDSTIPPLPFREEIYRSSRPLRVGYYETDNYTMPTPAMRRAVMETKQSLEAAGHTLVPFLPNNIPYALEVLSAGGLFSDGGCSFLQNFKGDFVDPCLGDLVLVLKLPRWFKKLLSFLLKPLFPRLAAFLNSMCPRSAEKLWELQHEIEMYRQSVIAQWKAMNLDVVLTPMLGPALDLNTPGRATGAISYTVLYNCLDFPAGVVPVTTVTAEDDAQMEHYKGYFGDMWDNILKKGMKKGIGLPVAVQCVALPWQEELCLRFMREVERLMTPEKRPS
T2 sequence (Q8R2Y0 whole entry): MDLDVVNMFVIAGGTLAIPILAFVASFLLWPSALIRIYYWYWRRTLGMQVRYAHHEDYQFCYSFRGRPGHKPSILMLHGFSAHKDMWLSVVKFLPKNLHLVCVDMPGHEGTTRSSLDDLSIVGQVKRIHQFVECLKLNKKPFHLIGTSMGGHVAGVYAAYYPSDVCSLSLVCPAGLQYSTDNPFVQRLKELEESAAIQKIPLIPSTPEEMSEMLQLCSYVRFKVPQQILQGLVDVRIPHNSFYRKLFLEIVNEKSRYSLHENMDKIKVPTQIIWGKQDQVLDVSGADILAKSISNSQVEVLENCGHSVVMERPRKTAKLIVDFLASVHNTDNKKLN

O=C(OC(C(F)(F)F)C(F)(F)F)N1CCC2(CCCN2Cc2ccc(C(F)(F)F)cc2N2CC3CCC(C2)O3)CC1 [Example 73, 1,1,1,3,3,3-Hexafluoropropan-2-yl 1-(2-(8-oxa-3-azabicyclo[3.2.1]octan-3-yl)-4-(trifluoromethyl)benzyl)-1,8-diazaspiro[4.5]decane-8-carboxylate]
inhibition at 1 µM [1]: > 75%
IC50 [1]: < 100 nM
inhibition at 1 µM [2]: < 25%
IC50 [2]: > 1000 nM
inhibition at 1 µM [3]: < 25%
IC50 [3]: > 1000 nM
MAGL % Inh 5 mg/kg (mouse) [4]: ## (## is equal to or greater than 25% but less than 75%)
FAAH % Inh 5 mg/kg (mouse) [5]: # (# is <25%)
ABHD6 % Inh 5 mg/kg (mouse) [6]: # (# is <25%)

O=C(OC(C(F)(F)F)C(F)(F)F)N1CCC2(CCCN2Cc2ccc(Cl)cc2N2CCCCC2)CC1 [Example 74, 1,1,1,3,3,3-Hexafluoropropan-2-yl 1-(4-chloro-2-(piperidin-1-yl)benzyl)-1,8-diazaspiro[4.5]decane-8-carboxylate]
inhibition at 1 µM [1]: > 75%
IC50 [1]: < 100 nM
inhibition at 1 µM [2]: 25 to 75%
IC50 [2]: > 1000 nM
inhibition at 1 µM [3]: < 25%
IC50 [3]: > 1000 nM
MAGL % Inh 5 mg/kg (mouse) [4]: ## (## is equal to or greater than 25% but less than 75%)
FAAH % Inh 5 mg/kg (mouse) [5]: # (# is <25%)
ABHD6 % Inh 5 mg/kg (mouse) [6]: # (# is <25%)

O=C(OC(C(F)(F)F)C(F)(F)F)N1CCC2(CCCN2Cc2ccc(Cl)cc2N2CC3CCC(C2)O3)CC1 [Example 75, 1,1,1,3,3,3-Hexafluoropropan-2-yl 1-(2-(8-oxa-3-azabicyclo[3.2.1]octan-3-yl)-4-chlorobenzyl)-1,8-diazaspiro[4.5]decane-8-carboxylate]
inhibition at 1 µM [1]: > 75%
IC50 [1]: < 100 nM
inhibition at 1 µM [2]: < 25%
IC50 [2]: > 1000 nM
inhibition at 1 µM [3]: < 25%
IC50 [3]: > 1000 nM
MAGL % Inh 5 mg/kg (mouse) [4]: ### (### is ≥75%)
FAAH % Inh 5 mg/kg (mouse) [5]: # (# is <25%)
ABHD6 % Inh 5 mg/kg (mouse) [6]: # (# is <25%)

O=C(OC(C(F)(F)F)C(F)(F)F)N1CCC2(CCCN2Cc2ccc(Cl)cc2N2CCCC2)CC1 [Example 76, 1,1,1,3,3,3-Hexafluoropropan-2-yl 1-(4-chloro-2-(pyrrolidin-1-yl)benzyl)-1,8-diazaspiro[4.5]decane-8-carboxylate]
inhibition at 1 µM [1]: > 75%
IC50 [1]: < 100 nM
inhibition at 1 µM [2]: < 25%
IC50 [2]: > 1000 nM
inhibition at 1 µM [3]: < 25%
IC50 [3]: > 1000 nM
MAGL % Inh 5 mg/kg (mouse) [4]: ### (### is ≥75%)
FAAH % Inh 5 mg/kg (mouse) [5]: # (# is <25%)
ABHD6 % Inh 5 mg/kg (mouse) [6]: # (# is <25%)

O=C(OC(C(F)(F)F)C(F)(F)F)N1CCC2(CCCN2Cc2ccc(Cl)cc2N2CCOCC2)CC1 [Example 77, 1,1,1,3,3,3-Hexafluoropropan-2-yl 1-(4-chloro-2-morpholinobenzyl)-1,8-diazaspiro[4.5]decane-8-carboxylate]
inhibition at 1 µM [1]: > 75%
IC50 [1]: < 100 nM
inhibition at 1 µM [2]: < 25%
IC50 [2]: > 1000 nM
inhibition at 1 µM [3]: < 25%
IC50 [3]: > 1000 nM
MAGL % Inh 5 mg/kg (mouse) [4]: ### (### is ≥75%)
FAAH % Inh 5 mg/kg (mouse) [5]: # (# is <25%)
ABHD6 % Inh 5 mg/kg (mouse) [6]: # (# is <25%)

O=C(OC(C(F)(F)F)C(F)(F)F)N1CCC2(CCCN2Cc2ccc(C(F)(F)F)cc2N2CCCCC2)CC1 [Example 78, 1,1,1,3,3,3-Hexafluoropropan-2-yl 1-(2-(piperidin-1-yl)-4-(trifluoromethyl)benzyl)-1,8-diazaspiro[4.5]decane-8-carboxylate]
inhibition at 1 µM [1]: > 75%
IC50 [1]: < 100 nM
inhibition at 1 µM [2]: < 25%
IC50 [2]: > 1000 nM
inhibition at 1 µM [3]: < 25%
IC50 [3]: > 1000 nM
MAGL % Inh 5 mg/kg (mouse) [4]: ## (## is equal to or greater than 25% but less than 75%)
FAAH % Inh 5 mg/kg (mouse) [5]: # (# is <25%)
ABHD6 % Inh 5 mg/kg (mouse) [6]: # (# is <25%)

O=C(OC(C(F)(F)F)C(F)(F)F)N1CCC2(CCCN2Cc2cccc(N3CCOCC3)c2Cl)CC1 [Example 79, 1,1,1,3,3,3-Hexafluoropropan-2-yl 1-(2-chloro-3-morpholinobenzyl)-1,8-diazaspiro[4.5]decane-8-carboxylate]
inhibition at 1 µM [1]: > 75%
IC50 [1]: < 100 nM
inhibition at 1 µM [2]: < 25%
IC50 [2]: > 1000 nM
inhibition at 1 µM [3]: < 25%
IC50 [3]: > 1000 nM
MAGL % Inh 5 mg/kg (mouse) [4]: ### (### is ≥75%)
FAAH % Inh 5 mg/kg (mouse) [5]: # (# is <25%)
ABHD6 % Inh 5 mg/kg (mouse) [6]: # (# is <25%)

O=C(OC(C(F)(F)F)C(F)(F)F)N1CCC2(CCCN2Cc2cccc(N3CCCCC3)c2Cl)CC1 [Example 80, 1,1,1,3,3,3-Hexafluoropropan-2-yl 1-(2-chloro-3-(piperidin-1-yl)benzyl)-1,8-diazaspiro[4.5]decane-8-carboxylate]
inhibition at 1 µM [1]: > 75%
IC50 [1]: < 100 nM
inhibition at 1 µM [2]: < 25%
IC50 [2]: > 1000 nM
inhibition at 1 µM [3]: < 25%
IC50 [3]: > 1000 nM
MAGL % Inh 5 mg/kg (mouse) [4]: ### (### is ≥75%)
FAAH % Inh 5 mg/kg (mouse) [5]: ## (## is equal to or greater than 25% but less than 75%)
ABHD6 % Inh 5 mg/kg (mouse) [6]: ## (## is equal to or greater than 25% but less than 75%)

O=C(OC(C(F)(F)F)C(F)(F)F)N1CCC2(CCCN2Cc2cccc(N3CCCC3)c2Cl)CC1 [Example 81, 1,1,1,3,3,3-Hexafluoropropan-2-yl 1-(2-chloro-3-(pyrrolidin-1-yl)benzyl)-1,8-diazaspiro[4.5]decane-8-carboxylate]
inhibition at 1 µM [1]: > 75%
IC50 [1]: < 100 nM
inhibition at 1 µM [2]: < 25%
IC50 [2]: > 1000 nM
inhibition at 1 µM [3]: < 25%
IC50 [3]: > 1000 nM
MAGL % Inh 5 mg/kg (mouse) [4]: ### (### is ≥75%)
FAAH % Inh 5 mg/kg (mouse) [5]: # (# is <25%)
ABHD6 % Inh 5 mg/kg (mouse) [6]: # (# is <25%)

O=C(OC(C(F)(F)F)C(F)(F)F)N1CCC2(CCCN2Cc2cccc(N3CC4CCC(C3)O4)c2Cl)CC1 [Example 82, 1,1,1,3,3,3-Hexafluoropropan-2-yl 1-(3-(8-oxa-3-azabicyclo[3.2.1]octan-3-yl)-2-chlorobenzyl)-1,8-diazaspiro[4.5]decane-8-carboxylate]
inhibition at 1 µM [1]: > 75%
IC50 [1]: < 100 nM
inhibition at 1 µM [2]: < 25%
IC50 [2]: > 1000 nM
inhibition at 1 µM [3]: < 25%
IC50 [3]: > 1000 nM
MAGL % Inh 5 mg/kg (mouse) [4]: ### (### is ≥75%)
FAAH % Inh 5 mg/kg (mouse) [5]: # (# is <25%)
ABHD6 % Inh 5 mg/kg (mouse) [6]: # (# is <25%)

Cc1c(CN2CCCC23CCN(C(=O)OC(C(F)(F)F)C(F)(F)F)CC3)cccc1N1CCCCC1 [Example 84, 1,1,1,3,3,3-Hexafluoropropan-2-yl 1-(2-methyl-3-(piperidin-1-yl)benzyl)-1,8-diazaspiro[4.5]decane-8-carboxylate]
inhibition at 1 µM [1]: > 75%
IC50 [1]: 100 to 1000 nM
inhibition at 1 µM [2]: < 25%
IC50 [2]: > 1000 nM
inhibition at 1 µM [3]: < 25%
IC50 [3]: > 1000 nM
MAGL % Inh 5 mg/kg (mouse) [4]: ### (### is ≥75%)
FAAH % Inh 5 mg/kg (mouse) [5]: # (# is <25%)
ABHD6 % Inh 5 mg/kg (mouse) [6]: # (# is <25%)

Cc1c(CN2CCCC23CCN(C(=O)OC(C(F)(F)F)C(F)(F)F)CC3)cccc1N1CCCC1 [Example 85, 1,1,1,3,3,3-Hexafluoropropan-2-yl 1-(2-methyl-3-(pyrrolidin-1-yl)benzyl)-1,8-diazaspiro[4.5]decane-8-carboxylate]
inhibition at 1 µM [1]: > 75%
IC50 [1]: < 100 nM
inhibition at 1 µM [2]: < 25%
IC50 [2]: > 1000 nM
inhibition at 1 µM [3]: < 25%
IC50 [3]: > 1000 nM
MAGL % Inh 5 mg/kg (mouse) [4]: ### (### is ≥75%)
FAAH % Inh 5 mg/kg (mouse) [5]: # (# is <25%)
ABHD6 % Inh 5 mg/kg (mouse) [6]: # (# is <25%)

Cc1c(CN2CCCC23CCN(C(=O)OC(C(F)(F)F)C(F)(F)F)CC3)cccc1N1CC2CCC(C1)O2 [Example 86, 1,1,1,3,3,3-Hexafluoropropan-2-yl 1-(3-(8-oxa-3-azabicyclo[3.2.1]octan-3-yl)-2-methylbenzyl)-1,8-diazaspiro[4.5]decane-8-carboxylate]
inhibition at 1 µM [1]: > 75%
IC50 [1]: < 100 nM
inhibition at 1 µM [2]: < 25%
IC50 [2]: > 1000 nM
inhibition at 1 µM [3]: < 25%
IC50 [3]: > 1000 nM
MAGL % Inh 5 mg/kg (mouse) [4]: ### (### is ≥75%)
FAAH % Inh 5 mg/kg (mouse) [5]: # (# is <25%)
ABHD6 % Inh 5 mg/kg (mouse) [6]: # (# is <25%)

CCN1CCN(c2cc(C(F)(F)F)ccc2CN2CCCC23CCN(C(=O)OC(C(F)(F)F)C(F)(F)F)CC3)CC1 [Example 87, 1,1,1,3,3,3-Hexafluoropropan-2-yl 1-(2-(4-ethylpiperazin-1-yl)-4-(trifluoromethyl)benzyl)-1,8-diazaspiro[4.5]decane-8-carboxylate]
inhibition at 1 µM [1]: > 75%
IC50 [1]: < 100 nM
inhibition at 1 µM [2]: < 25%
IC50 [2]: > 1000 nM
inhibition at 1 µM [3]: < 25%
IC50 [3]: > 1000 nM
MAGL % Inh 5 mg/kg (mouse) [4]: ## (## is equal to or greater than 25% but less than 75%)
FAAH % Inh 5 mg/kg (mouse) [5]: # (# is <25%)
ABHD6 % Inh 5 mg/kg (mouse) [6]: # (# is <25%)
